Experimental findings from PubChem BioAssay AID212 (DTP/NCI, 2004) are described below.

The test deals with BDF1 mice, colon carcinoma 38 sc, T/C %. The test can be described thus: NCI In Vivo Anticancer Drug Screen. Data for tumor model Colon Carcinoma 38 (subcutaneous) in B6D2F1 (BDF1) mice. The settings on record: endpoint: median tumor weight (est.), higher = larger tumour. Put shortly:
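Compound antitumor activity was assessed in mice carrying transplantable tumors. Survival or tumor size was recorded, and each value is the treated-group measurement divided by that of the vehicle-treated control group.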

The mark [1] stands for this setting: dose: 25.0 mg/kg/injection, schedule: Q07DX002 (ip), vehicle: distilled water + Tween-80.
Setting [2] is: dose: 50.0 mg/kg/injection, schedule: Q07DX002 (ip), vehicle: distilled water + Tween-80.
Setting [3] is: dose: 100.0 mg/kg/injection, schedule: Q07DX002 (ip), vehicle: distilled water + Tween-80.
[4] abbreviates: dose: 12.5 mg/kg/injection, schedule: Q07DX002 (ip), vehicle: Klucel (hydroxypropylcellulose) (HPC).
Where [5] appears, read: dose: 25.0 mg/kg/injection, schedule: Q07DX002 (ip), vehicle: Klucel (hydroxypropylcellulose) (HPC).
Setting [6] is: dose: 50.0 mg/kg/injection, schedule: Q07DX002 (ip), vehicle: Klucel (hydroxypropylcellulose) (HPC).
[7] abbreviates: dose: 6.25 mg/kg/injection, schedule: Q07DX002 (ip), vehicle: distilled water + Tween-80.
[8] abbreviates: dose: 12.5 mg/kg/injection, schedule: Q07DX002 (ip), vehicle: distilled water + Tween-80.
[9] abbreviates: dose: 12.5 mg/kg/injection, schedule: Q07DX002 (ip), vehicle: saline with Tween-80.
The mark [10] stands for this setting: dose: 50.0 mg/kg/injection, schedule: Q07DX002 (ip), vehicle: saline with Tween-80.
The mark [11] stands for this setting: dose: 200.0 mg/kg/injection, schedule: Q07DX002 (ip), vehicle: saline with Tween-80.
The mark [12] stands for this setting: dose: 400.0 mg/kg/injection, schedule: Q07DX002 (ip), vehicle: saline with Tween-80.
[13] abbreviates: dose: 25.0 mg/kg/injection, schedule: Q07DX002 (ip), vehicle: saline with Tween-80.
Where [14] appears, read: dose: 100.0 mg/kg/injection, schedule: Q07DX002 (ip), vehicle: saline with Tween-80.

Several values for one entry are separate records, joined by “and”; a condition that tells them apart may be missing. Identical values can stand only once. Inconclusive results are not listed.

Consider `Cc1c2ccccc2c(C)c2c1cc(C(=O)O)c1ccccc12`, for which the T/C reads like this: (dose: 62.5 mg/kg/injection, schedule: Q07DX002 (ip), vehicle: other) 67 % of control; (dose: 125.0 mg/kg/injection, schedule: Q07DX002 (ip), vehicle: other) 101 % of control; (dose: 250.0 mg/kg/injection, schedule: Q07DX002 (ip), vehicle: other) 152 % of control; (dose: 500.0 mg/kg/injection, schedule: Q07DX002 (ip), vehicle: other) 58 % of control; (dose: 1000.0 mg/kg/injection, schedule: Q07DX002 (ip), vehicle: other) 87 % of control.

`NC(=S)N/N=C\c1ncccc1OCc1cccc(N)c1`: the T/C by setting is: under setting [1], 80 % of control; under setting [2], 79 % of control; under setting [3], 78 % of control; (dose: 200.0 mg/kg/injection, schedule: Q07DX002 (ip), vehicle: distilled water + Tween-80) 71 % of control; (dose: 400.0 mg/kg/injection, schedule: Q07DX002 (ip), vehicle: distilled water + Tween-80) 80 % of control.

With `COc1ccc2c(c1)CCC(c1ccccc1)=C2c1ccc(OCCN2CCCC2)cc1`, the T/C by setting is: under setting [4], 68 % of control and 85 % of control; under setting [5], 83 % of control and 87 % of control; under setting [6], 70 % of control; (dose: 100.0 mg/kg/injection, schedule: Q07DX002 (ip), vehicle: Klucel (hydroxypropylcellulose) (HPC)) 77 % of control and 79 % of control; (dose: 200.0 mg/kg/injection, schedule: Q07DX002 (ip), vehicle: Klucel (hydroxypropylcellulose) (HPC)) 100 % of control.

Turning to `O=NN(CCCl)C(=O)Oc1cc(Cl)c(Cl)cc1Cl`, the T/C under setting [5] was 117 % of control and the T/C under setting [6] is 63 % of control.

With `COc1cccc2c1C(=O)c1c(O)c3c(c(O)c1C2=O)C[C@@](O)(C(=O)CO)C[C@@H]3OC1CC(OC(C)=O)C(OC(C)=O)C(C)O1` (stereo partly specified), the T/C is, setting by setting: (dose: 3.12 mg/kg/injection, schedule: Q07DX002 (ip), vehicle: distilled water + Tween-80) 89 % of control; under setting [7], 88 % of control; under setting [8], 65 % of control; under setting [1], 90 % of control; under setting [2], 62 % of control.

For `CCN(Cc1ccc(Cl)c(Cl)c1)c1ccc2nc(N)nc(N)c2c1C`, the T/C under setting [7] is 165 % of control, the T/C under setting [8] is 206 % of control and the T/C under setting [3] was 46 % of control.

For the compound `C1CCC2[N-]CC3CCCCC3[N-]CC3CCCCC3[N-]CC3CCCCC3[N-]CC2C1.[Cu]` (stereo unspecified), the T/C by setting is: (dose: 1.56 mg/kg/injection, schedule: Q07DX002 (ip), vehicle: Klucel (hydroxypropylcellulose) (HPC)) 93 % of control; (dose: 1.56 mg/kg/injection, schedule: Q07DX003 (ip), vehicle: Klucel (hydroxypropylcellulose) (HPC)) 97 % of control; (dose: 3.13 mg/kg/injection, schedule: Q07DX002 (ip), vehicle: Klucel (hydroxypropylcellulose) (HPC)) 81 % of control; (dose: 6.25 mg/kg/injection, schedule: Q07DX002 (ip), vehicle: Klucel (hydroxypropylcellulose) (HPC)) 91 % of control; (dose: 6.25 mg/kg/injection, schedule: Q07DX003 (ip), vehicle: Klucel (hydroxypropylcellulose) (HPC)) 100 % of control; under setting [4], 97 % of control. Further, the T/C (dose: 12.5 mg/kg/injection, schedule: Q07DX003 (ip), vehicle: Klucel (hydroxypropylcellulose) (HPC)) is 95 % of control.

Turning to `COc1cc(C(C)(C)C)cc(OC)c1C(O)(c1c(OC)cc(C(C)(C)C)cc1OC)c1c(OC)cc(C(C)(C)C)cc1OC`, the T/C reads like this: under setting [9], 70 % of control and 77 % of control; under setting [10], 95 % of control and 102 % of control; under setting [11], 88 % of control; under setting [12], 62 % of control.

For the compound `Cc1cc(NCCCCCCNc2cc(C)nc3cc(N(C)C)ccc23)c2ccc(N(C)C)cc2n1`, the T/C runs as follows: (dose: 6.0 mg/kg/injection, schedule: Q07DX002 (ip), vehicle: distilled water + Tween-80 + alcohol) 107 % of control; (dose: 12.5 mg/kg/injection, schedule: Q07DX002 (ip), vehicle: distilled water + Tween-80 + alcohol) 99 % of control; (dose: 25.0 mg/kg/injection, schedule: Q07DX002 (ip), vehicle: distilled water + Tween-80 + alcohol) 95 % of control; (dose: 50.0 mg/kg/injection, schedule: Q07DX002 (ip), vehicle: distilled water + Tween-80 + alcohol) 105 % of control; (dose: 100.0 mg/kg/injection, schedule: Q07DX002 (ip), vehicle: distilled water + Tween-80 + alcohol) 90 % of control.

Turning to `COc1cccc(C2NC(=O)c3c(n[nH]c3N)S2)c1O` (stereo unspecified), the T/C by setting is: under setting [13], 102 % of control; under setting [10], 106 % of control; under setting [14], 90 % of control; under setting [11], 94 % of control; under setting [12], 59 % of control.

With `N=C(N)SCc1cccc2c(=O)cc(-c3ccccc3)oc12`, the T/C (dose: 800.0 mg/kg/injection, schedule: Q07DX002 (ip), vehicle: saline) was 52 % of control and 69 % of control.

With `CSc1nc(=O)[nH]nc1SCc1ccccc1`, the T/C was 151 % of control and 169 % of control under setting [5]; 65 % of control (dose: 400.0 mg/kg/injection, schedule: Q07DX002 (ip), vehicle: Klucel (hydroxypropylcellulose) (HPC)).

`Nc1ccc(C(=O)Nc2ccccc2N)cc1`: the T/C is 121 % of control under setting [9]; 160 % of control (dose: 25.0 mg/kg/injection, schedule: Q01DX007 (ip), vehicle: saline with Tween-80); 58 % of control (dose: 25.0 mg/kg/injection, schedule: Q01DX007 (oral), vehicle: saline with Tween-80); 67 % of control under setting [13]; 71 % of control (dose: 50.0 mg/kg/injection, schedule: Q01DX007 (ip), vehicle: saline with Tween-80); 78 % of control (dose: 50.0 mg/kg/injection, schedule: Q01DX007 (oral), vehicle: saline with Tween-80). Moreover, the T/C runs as follows: (dose: 100.0 mg/kg/injection, schedule: Q01DX007 (ip), vehicle: saline with Tween-80) 123 % of control; under setting [14], 121 % of control; (dose: 200.0 mg/kg/injection, schedule: Q01DX007 (oral), vehicle: saline with Tween-80) 76 % of control; under setting [11], 84 % of control; (dose: 400.0 mg/kg/injection, schedule: Q01DX007 (oral), vehicle: saline with Tween-80) 105 % of control.

Turning to `CC(=O)N(C)c1ccc(Nc2cc(C)[nH]c3ccc4ncnc4c23)cc1`, the T/C is, setting by setting: (dose: 12.5 mg/kg/injection, schedule: Q07DX002 (ip), vehicle: saline) 118 % of control and 104 % of control; (dose: 25.0 mg/kg/injection, schedule: Q07DX002 (ip), vehicle: saline) 74 % of control and 80 % of control.

Consider `ClCCCN1CCN(CCCCl)CC1`, for which the T/C reads like this: (dose: 12.5 mg/kg/injection, schedule: Q07DX002 (ip), vehicle: distilled water + alcohol) 94 % of control; (dose: 25.0 mg/kg/injection, schedule: Q07DX002 (ip), vehicle: distilled water + alcohol) 154 % of control; (dose: 50.0 mg/kg/injection, schedule: Q07DX002 (ip), vehicle: distilled water + alcohol) 153 % of control and 207 % of control; (dose: 100.0 mg/kg/injection, schedule: Q07DX002 (ip), vehicle: distilled water + alcohol) 39 % of control and 50 % of control; (dose: 200.0 mg/kg/injection, schedule: Q07DX002 (ip), vehicle: distilled water + alcohol) 63 % of control.

As to `O=C/C(Cl)=C(/Cl)C(=O)O`, the T/C was 63 % of control (dose: 5.0 mg/kg/injection, schedule: Q07DX002 (ip), vehicle: saline with Tween-80); 113 % of control and 92 % of control (dose: 10.0 mg/kg/injection, schedule: Q07DX002 (ip), vehicle: saline with Tween-80).

For the compound `COC(=O)[C@@]12OC[C@]34[C@H]([C@@H](O)[C@@H]1O)[C@@]1(C)CC(=O)C(O)=C(C)[C@@H]1C[C@H]3OC(=O)[C@H](OC(=O)/C=C(\C)C(C)C)[C@@H]24`, the T/C reads like this: (dose: 0.25 mg/kg/injection, schedule: Q07DX003 (ip), vehicle: other) 72 % of control; (dose: 0.5 mg/kg/injection, schedule: Q07DX003 (ip), vehicle: other) 98 % of control.
